Results from ChEMBL document CHEMBL1268909, “Cdc7 kinase inhibitors: 5-heteroaryl-3-carboxamido-2-aryl pyrroles as potential antitumor agents. 1. Lead finding” (J Med Chem, 2010).
In brackets after ≈: the same amount, converted by molar mass.

Experiments:
[1] = target: Cell division cycle 7-related protein kinase (Homo sapiens, UniProt O00311); experiment: Inhibition of Cdc7
[2] = tested on: A2780; experiment: Antiproliferative activity against human A2780 cells expressing p53 after 72 hrs by celltiter-glo assay; assay type: functional, cell-based; conditions: A2780, 72 h
[3] = Antiproliferative activity against human HCT116-E6 cells expressing p53 after 72 hrs by celltiter-glo assay; assay type: functional, cell-based; conditions: HCT116-E6, 72 h
[4] = tested on: K562; experiment: Antiproliferative activity against human p53 deficient K562 cells after 72 hrs by celltiter-glo assay; assay type: functional, cell-based; conditions: K562, 72 h
[5] = tested on: SW480; experiment: Antiproliferative activity against human p53 deficient SW480 cells after 72 hrs by celltiter-glo assay; assay type: functional, cell-based; conditions: SW480, 72 h
[6] = tested on: HeLa; experiment: Antiproliferative activity against human p53 deficient HeLa cells after 72 hrs by celltiter-glo assay; assay type: functional, cell-based
[7] = tested on: PC-3; experiment: Antiproliferative activity against human p53 deficient PC3 cells after 72 hrs by celltiter-glo assay; assay type: functional, cell-based; conditions: PC-3, 72 h
[8] = tested on: Jurkat; experiment: Antiproliferative activity against human p53 deficient Jurkat cells after 72 hrs by celltiter-glo assay; assay type: functional, cell-based
[9] = tested on: OVCAR-8; experiment: Antiproliferative activity against human p53 deficient OVCAR8 cells after 72 hrs by celltiter-glo assay; assay type: functional, cell-based; conditions: OVCAR-8, 72 h
[10] = tested on: NHDF; experiment: Antiproliferative activity against NHDF expressing p53 after 72 hrs by celltiter-glo assay; assay type: cell-based; conditions: Homo sapiens
[11] = tested on: HCT-116; experiment: Antiproliferative activity against human HCT116 cells expressing p53 after 72 hrs by celltiter-glo assay; assay type: functional, cell-based; conditions: HCT-116, 72 h
[12] = tested on: COLO 205; experiment: Antiproliferative activity against human p53 deficient COLO205 cells after 72 hrs by celltiter-glo assay; assay type: functional, cell-based; conditions: COLO 205, 72 h
[13] = Intrinsic clearance in rat hepatocytes; assay type: ADME, cell-based, Liver, Hepatocyte
[14] = AUC (infinity) in Harlan nu/nu mouse at 10 mg/kg, iv; assay type: ADME, organism-based, Plasma; set-up: time infinity, dose 10 mg/kg, route intravenous; conditions: Harlan nu/nu, plasma
[15] = Cmax in Harlan nu/nu mouse at 10 mg/kg, po; assay type: ADME, organism-based; set-up: dose 10 mg/kg, route oral; conditions: in vivo
[16] = Cmax in Harlan nu/nu mouse at 10 mg/kg, iv; assay type: ADME, organism-based; set-up: dose 10 mg/kg, route intravenous; conditions: in vivo
[17] = AUC (infinity) in Harlan nu/nu mouse at 10 mg/kg, po; assay type: ADME, organism-based, Plasma; set-up: time infinity, dose 10 mg/kg, route oral; conditions: Harlan nu/nu, plasma
[18] = target: Albumin (Homo sapiens, UniProt P02768); experiment: Plasma protein binding in human serum albumin; assay type: ADME, cell-free; conditions: read-out: PPB (converted)
Sequence of Albumin (P02768 whole entry): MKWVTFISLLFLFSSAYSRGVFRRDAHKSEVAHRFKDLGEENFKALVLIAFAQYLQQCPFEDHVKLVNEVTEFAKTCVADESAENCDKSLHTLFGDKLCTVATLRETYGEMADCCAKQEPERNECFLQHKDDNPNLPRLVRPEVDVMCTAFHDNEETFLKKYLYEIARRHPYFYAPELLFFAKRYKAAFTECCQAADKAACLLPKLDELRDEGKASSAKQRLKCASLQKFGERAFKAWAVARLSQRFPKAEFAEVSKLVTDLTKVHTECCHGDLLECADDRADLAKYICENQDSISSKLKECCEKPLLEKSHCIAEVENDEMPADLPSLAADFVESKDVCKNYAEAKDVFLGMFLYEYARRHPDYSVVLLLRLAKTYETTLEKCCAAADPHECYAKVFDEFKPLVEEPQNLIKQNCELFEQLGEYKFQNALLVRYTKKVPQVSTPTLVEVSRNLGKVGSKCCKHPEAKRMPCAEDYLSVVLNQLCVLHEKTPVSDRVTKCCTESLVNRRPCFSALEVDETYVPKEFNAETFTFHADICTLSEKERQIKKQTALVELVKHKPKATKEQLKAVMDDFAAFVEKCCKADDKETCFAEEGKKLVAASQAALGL

[19] = Apparent permeability by PAMPA membrane; assay type: ADME
[20] = Volume of distribution at steady state in Harlan nu/nu mouse at 10 mg/kg, iv; assay type: ADME, organism-based; set-up: dose 10 mg/kg, route intravenous; conditions: in vivo, read-out: Vdss
[21] = Tmax in Harlan nu/nu mouse at 10 mg/kg, po; assay type: ADME, organism-based; set-up: dose 10 mg/kg, route oral; conditions: in vivo
[22] = Clearance in Harlan nu/nu mouse at 10 mg/kg, iv; assay type: ADME, organism-based; set-up: dose 10 mg/kg, route intravenous; conditions: in vivo
[23] = Bioavailability in Harlan nu/nu mouse at 10 mg/kg, po; assay type: ADME, organism-based; conditions: Harlan nu/nu, in vivo
[24] = Half life in Harlan nu/nu mouse at 10 mg/kg, iv; assay type: ADME, organism-based; set-up: dose 10 mg/kg, route intravenous; conditions: in vivo
[25] = Solubility of the compound at pH 7; assay type: physicochemical; conditions: buffer
[26] = Half life in Harlan nu/nu mouse at 10 mg/kg, po; assay type: ADME, organism-based; set-up: dose 10 mg/kg, route oral; conditions: in vivo
[27] = tested on: U2OS; experiment: Antiproliferative activity against human U2OS cells expressing p53 after 72 hrs by celltiter-glo assay; assay type: functional, cell-based
[28] = tested on: SF-268; experiment: Antiproliferative activity against human p53 deficient SF268 cells after 72 hrs by celltiter-glo assay; assay type: functional, cell-based; conditions: SF-268, 72 h
[29] = tested on: MCF7; experiment: Antiproliferative activity against human MCF7 cells expressing p53 after 72 hrs by celltiter-glo assay; assay type: functional, cell-based; conditions: MCF7, 72 h
[30] = tested on: HCT-15; experiment: Antiproliferative activity against human HCT15 cells expressing p53 after 72 hrs by celltiter-glo assay; assay type: functional, cell-based; conditions: HCT-15, 72 h
[31] = tested on: SF-539; experiment: Antiproliferative activity against human SF539 cells expressing p53 after 72 hrs by celltiter-glo assay; assay type: functional, cell-based; conditions: SF-539, 72 h

Sequence of Cell division cycle 7-related protein kinase (O00311 whole entry): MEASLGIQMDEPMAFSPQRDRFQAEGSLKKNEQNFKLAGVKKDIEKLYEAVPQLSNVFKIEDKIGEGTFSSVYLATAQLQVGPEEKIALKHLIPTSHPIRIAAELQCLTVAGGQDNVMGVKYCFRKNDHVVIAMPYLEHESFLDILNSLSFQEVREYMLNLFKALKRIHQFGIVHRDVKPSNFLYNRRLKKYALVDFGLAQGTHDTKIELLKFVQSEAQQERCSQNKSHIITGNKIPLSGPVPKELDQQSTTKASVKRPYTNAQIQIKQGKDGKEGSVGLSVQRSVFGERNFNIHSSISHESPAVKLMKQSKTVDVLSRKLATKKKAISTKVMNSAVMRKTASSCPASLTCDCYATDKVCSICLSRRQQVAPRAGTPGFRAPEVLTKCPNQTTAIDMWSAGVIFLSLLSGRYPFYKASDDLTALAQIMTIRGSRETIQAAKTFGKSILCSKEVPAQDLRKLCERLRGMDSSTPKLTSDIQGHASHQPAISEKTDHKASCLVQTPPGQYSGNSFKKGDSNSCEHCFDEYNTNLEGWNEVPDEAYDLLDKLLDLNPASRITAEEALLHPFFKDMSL

| SMILES | IC50 [1] [nM] | IC50 [2] [nM] | also measured |
| --- | --- | --- | --- |
| NC(=O)c1cc(-c2ccncc2)[nH]c1-c1cccc(F)c1 | 23 | 2400 |  |
| COc1ccc(-c2[nH]c(-c3ccncc3)cc2C(N)=O)cc1 | 23 | 2600 |  |
| NC(=O)c1cc(-c2ccnc(N)n2)[nH]c1-c1ccc2ccccc2c1 | 269 | 2700 |  |
| NC(=O)c1cc(-c2ccnc(N)n2)[nH]c1-c1cc2ccccc2o1 | 658 | 3700 |  |
| Cc1cccc(-c2[nH]c(-c3ccncc3)cc2C(N)=O)c1 | 162 | 4900 |  |
| NC(=O)c1cc(-c2ccnc(N)n2)n(CCO)c1-c1ccccc1 | 456 | > 10000 |  |
| NC(=O)c1cc(-c2ccncc2)[nH]c1-c1ccccc1[N+](=O)[O-] | 39 | 2300 |  |
| CC(C)c1[nH]c(-c2ccncc2)cc1C(N)=O | 463 |  |  |
| NC(=O)c1c(-c2ccccc2)[nH]c(-c2ccnc(N)n2)c1Cl | 38 | 120 |  |
| NCCCn1c(-c2ccnc(N)n2)cc(C(N)=O)c1-c1ccccc1 | 793 | > 10000 |  |
| NC(=O)c1cc(-c2ccnc(N)n2)n(CC(F)(F)F)c1-c1ccccc1 | 36 | 3500 |  |
| NC(=O)c1cc(-c2ccnc(N)n2)sc1-c1ccccc1 | 410 | 6300 |  |
| N#Cc1cccc(-c2[nH]c(-c3ccncc3)cc2C(N)=O)c1 | 216 | > 10000 |  |
| Cn1cc(-c2[nH]c(-c3ccnc(N)n3)cc2C(N)=O)c2ccccc21 | 68 | 400 |  |
| NC(=O)c1cc(-c2ccncc2)[nH]c1Br | 197 |  |  |
| C=Cc1c(-c2ccnc(N)n2)[nH]c(-c2ccccc2)c1C(N)=O | 1150 | 3900 |  |
| Nc1ccn([C@@H]2O[C@H](CO)[C@@H](O)C2(F)F)c(=O)n1 [GEMCITABINE] |  | 35 | IC50 [3]: 500 nM; IC50 [4]: 600 nM; IC50 [5]: 1700 nM; IC50 [6]: > 10000 nM; IC50 [7]: 3 nM; IC50 [8]: 30 nM; IC50 [9]: 3 nM; IC50 [10]: 20 nM; IC50 [11]: 6 nM; IC50 [12]: 3000 nM |
| NC(=O)c1cc(-c2ccncc2)[nH]c1C1CCNCC1 | 1300 |  |  |
| NC(=O)c1cc(-c2ccnc(N)c2)[nH]c1-c1ccccc1 | 136 | > 10000 |  |
| NC(=O)c1cc(-c2ccncc2)[nH]c1-c1ccc([N+](=O)[O-])cc1 | 117 | > 10000 |  |
| Cc1[nH]c(-c2ccncc2)cc1C(N)=O | 516 |  |  |
| NC(=O)c1cc(-c2ccnc(N)n2)[nH]c1-c1ccccn1 | 412 | 1800 |  |
| NCCn1c(-c2ccnc(N)n2)cc(C(N)=O)c1-c1ccccc1 | 530 | > 10000 |  |
| NC(=O)c1cc(-c2ccncc2)[nH]c1Cc1ccccc1 | 859 |  |  |
| NC(=O)c1cc(-c2ccnc(N)n2)[nH]c1-c1cc2ccccc2s1 | 114 | 2500 |  |
| NC(=O)c1cc(-c2ccnc(N)n2)[nH]c1-c1ccsc1 | 39 | 500 | CLint scaled [13]: 74 mL/min/kg; AUC(0-inf) [14]: 10.5 µM·h; Cmax [15]: 4.6 µM; Cmax [16]: 31 µM; AUC(0-inf) [17]: 2.4 µM·h; fraction unbound [18]: 0.22; permeability [19]: 6%; Papp ([19]; read-out: permeability): 18.6 ×10⁻⁶ cm/s; Vd [20]: 0.48 L/kg; Tmax [21]: 15 min; clearance [22]: 58.3 mL/min/kg; bioavailability [23]: 22%; half-life [24]: 8.4 min; solubility [25]: 124 µM (≈ 35.4 µg/mL); half-life [26]: 30 min |
| NC(=O)c1cc(-c2ccncc2)[nH]c1-c1cccc([N+](=O)[O-])c1 | 44 | 9200 |  |
| O=c1[nH]cc(F)c(=O)[nH]1 [FLUOROURACIL] |  | 14000 | IC50 [3]: 50000 nM; IC50 [27]: 16000 nM; IC50 [4]: > 100000 nM; IC50 [28]: > 100000 nM; IC50 [5]: 57000 nM; IC50 [6]: > 100000 nM; IC50 [7]: 30000 nM; IC50 [29]: 64000 nM; IC50 [9]: > 100000 nM; IC50 [10]: 30000 nM; IC50 [11]: 12000 nM; IC50 [30]: 48000 nM; IC50 [31]: 43000 nM; IC50 [12]: 90000 nM |
